These results are taken from DBAASP.

Converted amounts (≈) assume the structure as drawn.

Common to all, as to test: ≥ marks a high value that may be exact or a test limit, other limits are often not marked, values filed in µg/mL are converted to µM
In assay [1] the test system is Staphylococcus aureus NCTC 10788.
Assay [2] has as its system Staphylococcus aureus NCTC 12493.
In assay [3] the test system is Escherichia coli NCTC 10418.
Assay [4] concerns Klebsiella pneumoniae ATCC 43816.
The subject of assay [5] is Pseudomonas aeruginosa ATCC 27853.
Assay [6] deals with Candida albicans NCTC 1467.
Assay [7] relates to Pseudomonas aeruginosa PAO1.
The test system of assay [8] is Pseudomonas aeruginosa 910.
Assay [9] relates to Pseudomonas aeruginosa 253.
Assay [10] deals with Pseudomonas aeruginosa 919.
For assay [11], the system named is Escherichia coli CCT 1371.
Assay [12] concerns Bacillus subtilis CCT 2471.
Assay [13] has as its system Staphylococcus aureus ATCC 6538.
Assay [14] deals with Staphylococcus aureus ATCC 25923.
Assay [15] relates to Candida albicans.
The subject of assay [16] is Staphylococcus saprophyticus.
Assay [17] has as its system Staphylococcus epidermidis.
Assay [18] concerns Escherichia coli ATCC 25922.
The test system of assay [19] is Pseudomonas aeruginosa ATCC 15442.
Assay [20] has as its system Acinetobacter baumannii ATCC 7978.
The subject of assay [21] is Pseudomonas aeruginosa PA14.
Assay [22] relates to Staphylococcus aureus ATCC 29231.
The subject of assay [23] is Enterococcus faecium E007.
Assay [24] deals with Candida albicans ATCC 10231.
Assay [25] concerns Enterococcus faecalis NCTC 12697.
Assay [26] relates to Salmonella enterica serovar Typhimurium.
Assay [27] concerns Escherichia coli UB1005.
Assay [28] deals with Pseudomonas aeruginosa H103.

Turning to `CC[C@H](C)[C@@H]1NC(=O)[C@H](CC(C)C)NC(=O)[C@@H](NC(=O)[C@@H](NC(=O)[C@@H](NC(=O)[C@H](C)NC(=O)CNC(=O)[C@H](CC(C)C)NC(=O)[C@H](C)NC(=O)[C@@H](N)Cc2ccccc2)C(C)C)[C@@H](C)O)CSSC[C@@H](C(=O)N[C@@H](CCCCN)C(=O)N[C@H](C(=O)N[C@@H](CC(C)C)C(=O)N2CCC[C@H]2C(=O)N[C@@H](CCCCN)C(=O)N[C@@H](CC(C)C)C(=O)N[C@@H](Cc2ccccc2)C(=O)O)C(C)C)NC(=O)[C@H](CCCCN)NC(=O)[C@H]([C@@H](C)O)NC(=O)[C@H](CCCN=C(N)N)NC1=O` [FALGAVTCLIRTKCKVLPKLF], the MIC (commonly the lowest concentration that inhibits growth of the organism) in assay [1] is no less than 128 µM; in assay [2], no less than 128 µM; in assay [3], no less than 64 µM; in [4] it was no less than 128 µM; in [5], greater than 128 µM; in assay [6], no less than 128 µM.

`CC[C@H](C)[C@H](NC(=O)[C@@H](N)Cc1ccccc1)C(=O)N[C@@H](CCCCN)C(=O)N[C@@H](Cc1c[nH]c2ccccc12)C(=O)N[C@@H](CCCN=C(N)N)C(=O)N[C@@H](Cc1ccccc1)C(=O)N[C@@H](CCCN=C(N)N)C(=O)N[C@@H](CCCN=C(N)N)C(=O)N[C@@H](Cc1c[nH]c2ccccc12)C(=O)N[C@@H](CCCCN)C(=O)N[C@@H](CCCCN)C(=O)N[C@@H](CCCN=C(N)N)C(=O)N[C@H](C(N)=O)[C@@H](C)O` [FIKWRFRRWKKRT]: the MIC in assay [7] was 4 µM (≈ 7.63 µg/mL); in [8] it was 8 µM (≈ 15.3 µg/mL); in [9], 16 µM (≈ 30.5 µg/mL); in assay [10] it was no less than 32 µM.

Take `CC[C@H](C)[C@H](N)C(=O)N[C@@H](CC(C)C)C(=O)N[C@@H](CCCCN)C(=O)N[C@@H](Cc1c[nH]c2ccccc12)C(=O)N[C@@H](CCCCN)C(=O)N[C@H](C(=O)N[C@@H](CCCCN)C(=O)N[C@@H](Cc1c[nH]c2ccccc12)C(=O)N[C@@H](Cc1c[nH]c2ccccc12)C(=O)N[C@@H](CCCCN)C(=O)N[C@@H](Cc1c[nH]c2ccccc12)C(=O)N[C@@H](Cc1ccccc1)C(=O)N[C@@H](CCCN=C(N)N)C(N)=O)[C@@H](C)O` [ILKWKTKWWKWFR]: the MIC in [7] was found to be 2 µM (≈ 3.81 µg/mL); in assay [8], 4 µM (≈ 7.62 µg/mL); in [9], 4 µM (≈ 7.62 µg/mL); in assay [10], 16 µM (≈ 30.5 µg/mL).

As to `CC[C@H](C)[C@H](NC(=O)CNC(=O)[C@H](CCCCN)NC(=O)[C@H](C)NC(=O)[C@@H](NC(=O)[C@H](CCCCN)NC(=O)[C@@H](N)CC(C)C)[C@@H](C)CC)C(=O)N[C@H](C(=O)N[C@@H](CCCCN)C(=O)N[C@@H](CO)C(=O)N[C@@H](CC(C)C)C(=O)O)[C@@H](C)CC` [LKIAKGIIKSL], the MIC in assay [11] is no less than 84.5 µM; in assay [12], no less than 84.5 µM; in assay [13], greater than 84.5 µM; in assay [14], greater than 84.5 µM; in [15] it was greater than 84.5 µM; in assay [16] it was no less than 84.5 µM. Further, the values for the MIC in assay [17], in [18] and in [19] were no less than 84.5 µM, greater than 84.5 µM and no less than 84.5 µM, respectively.

Turning to `CC[C@H](C)[C@H](NC(=O)[C@H](CCCCN)NC(=O)[C@H](CCCCN)NC(=O)[C@@H](N)CC(C)C)C(=O)NCC(=O)N[C@@H](CCCCN)C(=O)N[C@@H](CCCCN)C(=O)N[C@H](C(=O)N[C@@H](Cc1c[nH]c2ccccc12)C(=O)N[C@@H](CCCN=C(N)N)C(=O)N[C@H](C(=O)NCC(=O)O)C(C)C)[C@@H](C)CC` [LKKIGKKIWRVG], the MIC in assay [20], in assay [21], in assay [22] and in [23] was no less than 89.8 µM throughout.

For the compound `CC[C@H](C)[C@H](NC(=O)[C@H](CCCCN)NC(=O)[C@H](CCCCN)NC(=O)[C@H](Cc1c[nH]c2ccccc12)NC(=O)[C@@H](NC(=O)[C@H](CCCCN)NC(=O)[C@H](Cc1c[nH]c2ccccc12)NC(=O)[C@@H](N)CC(C)C)[C@@H](C)CC)C(=O)N[C@@H](Cc1c[nH]c2ccccc12)C(=O)N[C@@H](CCCN=C(N)N)C(=O)N[C@H](C(=O)N[C@@H](Cc1c[nH]c2ccccc12)C(=O)N[C@@H](Cc1c[nH]c2ccccc12)C(=O)N[C@@H](CC(N)=O)C(=O)N[C@@H](Cc1c[nH]c2ccccc12)C(=O)N[C@@H](CCCN=C(N)N)C(=O)O)C(C)C` [LWKIWKKIWRVWWNWR], the MIC was 26.8 µM (≈ 64 µg/mL) in [21], 13.1 µM (≈ 31.3 µg/mL) in assay [22], 53.7 µM (≈ 128 µg/mL) in assay [24] and no less than 53.7 µM in assay [23].

As for `CSCC[C@H](NC(=O)[C@H](CCC(=O)O)NC(=O)[C@H](CCCCN)NC(=O)[C@H](CC(C)C)NC(=O)[C@H](CCCCN)NC(=O)CNC(=O)[C@H](Cc1c[nH]c2ccccc12)NC(=O)[C@H](CC(C)C)NC(=O)[C@@H](N)CO)C(=O)N[C@@H](CC(C)C)C(=O)N[C@@H](C)C(=O)N[C@@H](C)C(=O)N[C@@H](C)C(=O)NCC(=O)N[C@@H](CCCCN)C(=O)N[C@@H](C)C(=O)N[C@H](C(=O)N[C@@H](C)C(=O)N[C@@H](CC(N)=O)C(=O)N[C@@H](C)C(=O)N[C@H](C(=O)N[C@@H](CC(N)=O)C(=O)NCC(=O)N[C@@H](CC(C)C)C(=O)N[C@@H](C)C(=O)N[C@@H](CC(N)=O)C(=O)N[C@@H](CCC(N)=O)C(N)=O)C(C)C)C(C)C` [SLWGKLKEMLAAAGKAVANAVNGLANQ], the MIC in [1] was 8 µM (≈ 21.8 µg/mL); in [2], 16 µM (≈ 43.6 µg/mL); in assay [25], no less than 32 µM; in assay [3], 8 µM (≈ 21.8 µg/mL); in assay [4], no less than 32 µM; in [5], 32 µM (≈ 87.2 µg/mL). The compound also displayed an MIC in assay [6] of no less than 64 µM.

With `CC[C@H](C)[C@H](NC(=O)[C@H](CCCN=C(N)N)NC(=O)[C@H](Cc1c[nH]c2ccccc12)NC(=O)[C@H](CCCN=C(N)N)NC(=O)[C@@H](N)C(C)C)C(=O)N[C@@H](CCCN=C(N)N)C(=O)N[C@H](C(=O)N[C@@H](C)C(=O)N[C@H](C(=O)N[C@H](C(=O)N[C@@H](CCCN=C(N)N)C(=O)N[C@@H](C)C(=O)O)[C@@H](C)CC)C(C)C)C(C)C` [VRWRIRVAVIRA], the MIC in [7] amounted to 8 µM (≈ 12 µg/mL); in [26] it was 4.01 µM (≈ 6 µg/mL); in assay [8], 16 µM (≈ 23.9 µg/mL); in assay [9] it was 16 µM (≈ 23.9 µg/mL); in [27], 1.07 µM (≈ 1.6 µg/mL); in [10], 8 µM (≈ 12 µg/mL). For the same compound, the MIC in [14] turned out to be 8.03 µM (≈ 12 µg/mL); in assay [15], 8.03 µM (≈ 12 µg/mL); in assay [17], 1.07 µM (≈ 1.6 µg/mL); in assay [28], 4.01 µM (≈ 6 µg/mL).
